Reference: US20100120730A1, “6-BENZYL-2,3,4,7-TETRAHYDRO-INDOLO [2,3-C] QUINOLINE COMPOUNDS USEFUL AS PDE5 INHIBITORS” (NYCOMED GmbH, priority 2007, published 2010)
pIC50: −log10 of the molar value.

Legend:
[1] = molecular target: T1, human PDE5 (Homo sapiens, UniProt O76074); assay: Inhibition of PDE5 activity (modified SPA test, human platelet lysate); format: biochemical; conditions: PDE5-containing human platelet lysate, 0.5 μM cGMP substrate, 37° C.
T1 construct: from tissue; host or cells: human platelets from fresh donor blood (10,000 g supernatant of sonified platelets)
Method in brief: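 Human platelet lysate (10,000 g supernatant) as PDE5 source; SPA with 0.5 μM cGMP plus [3H]cGMP tracer, 20 mM Tris pH 7.4, 5 mM Mg2+, 1 μM motapizone and 10 nM BAY-60-7550; 5 min preincubation at 37° C., 15 min reaction, stopped with SPA beads containing IBMX. IC50 by non-linear regression.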

Row | pIC50 [1] | melting point | SMILES
1 | 7.78 | 121 to 128 °C | CC1(C)Cc2nc(Cc3ccc(F)c(F)c3)c3[nH]c4ccccc4c3c2C(O)C1 (centres unmarked) [Example 66, 6-(3,4-Difluoro-benzyl)-3,3-dimethyl-2,3,4,7-tetrahydro-1H-indolo[2,3-c]quinolin-1-ol]
2 | 7.33 | 195 to 197 °C | CC(=O)Nc1ccc(Cc2nc3c(c4c2[nH]c2ccccc24)C(O)CC(C)(C)C3)cc1 (centres unmarked) [Example 63, N-[4-(1-Hydroxy-3,3-dimethyl-2,3,4,7-tetrahydro-1H-indolo[2,3-c]quinolin-6-ylmethyl)-phenyl]-acetamide]
3 | 7.54 | 187 to 189 °C | CC1(C)Cc2nc(Cc3ccc(F)cc3)c3[nH]c4ccccc4c3c2C(O)C1 (centres unmarked) [Example 64, 6-(4-Fluoro-benzyl)-3,3-dimethyl-2,3,4,7-tetrahydro-1H-indolo[2,3-c]quinolin-1-ol]
4 | 7.82 | 124 to 127 °C | CC1(C)Cc2nc(Cc3cccc(Cl)c3)c3[nH]c4ccccc4c3c2[C@@H](O)C1 [Example 94, (S)-6-(3-Chloro-benzyl)-3,3-dimethyl-2,3,4,7-tetrahydro-1H-indolo[2,3-c]quinolin-1-ol]
5 | 7.57 | 179 to 181 °C | CCOc1ccc(Cc2nc3c(c4c2[nH]c2ccccc24)C(=O)CC(C)(C)C3)cc1 [Example 12, 6-(4-Ethoxy-benzyl)-3,3-dimethyl-2,3,4,7-tetrahydro-indolo[2,3-c]quinolin-1-one]
6 | 7.50 | 164 to 166 °C | COc1ccc(Cc2nc3c(c4c2[nH]c2ccccc24)[C@H](O)CC(C)(C)C3)cc1F [Example 82, (R)-6-(3-Fluoro-4-methoxy-benzyl)-3,3-dimethyl-2,3,4,7-tetrahydro-1H-indolo[2,3-c]quinolin-1-ol]
7 | 7.00 | 118 to 120 °C | COc1ccc(Cc2nc3c(c4c2[nH]c2ccccc24)[C@H](O)CC(C)(C)C3)cc1 [Example 80, (R)-6-(4-Methoxy-benzyl)-3,3-dimethyl-2,3,4,7-tetrahydro-1H-indolo[2,3-c]quinolin-1-ol]
